From patent US20140323581A1, “TRANSCRIPTOME WIRING ANALYSIS IN PARKINSON'S DISEASE AND USES THEREOF” (THE TRUSTEES OF COLUMBIA UNIVERSITY IN THE CITY OF NEW YORK, priority 2011, published 2014)
Entries after “also recorded” stand apart in the source; their conditions may differ.

Columns and labels:
aSynL:total ratio [1] = assay: aSynL:total ratio by RT-qPCR in rat primary cortical cultures; format: cell-based; conditions: for aSynL:total ratio: rat primary cortical neurons, RT-qPCR, dopamine, picrotoxin, muscimol, NMDA 100 μM, kainic acid 50 μM, vs vehicle; for dopamine-mediated potentiation of the aSynL:total ratio: nomifensine 100 μM with dopamine 100 μM for 24 h
Description: (§1) Cultures of rodent neurons were prepared as described in ^53. Cells were maintained in vitro for 3-5 days before drug treatments or transfection using Lipofectamine 2000 (Iinvitrogen) following manufacturer's instructions.
RT-qPCR analyses were performed as described ^60. The human aSynL:Total mRNA ratio was quantified in terms of AACt ^60 using primer pair Lh for the human long form (HaSynLfw [[…]] SEQ ID NO: 13, and HaSynLry [[…]]) SEQ ID NO: 14 and primer pair Th for human total (HaSynTfw [[…]] SEQ ID NO: 15 and HaSynTrv [[…]] SEQ ID NO: 16). For analysis of either mouse or rat, primer pairs mrL (RaSynLfw [[…]] SEQ ID NO: 17 and RaSynLrv [[…]] SEQ ID NO: 18) and mrT (RaSynTfw [[…]] SEQ ID NO: 19, RaSynTry [[…]] SEQ ID NO: 20) were used.

human aSyn 3′UTR = assay: Firefly luciferase-aSyn 3′UTR reporter assay in SH-SY5Y cells; format: cell-based; conditions: for luciferase expression, Firefly/Renilla ratio, 1.1 kb human aSyn 3′UTR vector: 100 μM for 24 h
Description: The human SH-SY5Y neuroblastoma cell line (ATCC) was cultured following the distributor's instructions. Cells were plated at a density of 4×10^5 cells per well (in 48-well plates) in wells coated with 0.1% gelatin (Specialty Media, Millipore) 24 hours prior to transfection. Transfections were performed with Lipofectamine 2000 reagent (Invitrogen) following the manufacturer's instructions. The human HEK-293T cell line (ATCC) was cultured in DMEM (Invitrogen) supplemented with 10% FBS (Invitrogen). Cells were plated at a density of 8×10^3 cells per well (96-well plates). Mir-34b-3p precursor, specific Anti-miR Mir-34b-3p inhibitor, Anti-miR Negative Control #1, and Pre-miR Negative Control #1 were purchased from Ambion. Cells were co-transfected with luciferase reporter plasmids and a small RNA or inhibitor (as indicated) using siPort NeoFx reagent (Ambion) following manufacturer's protocol. Luciferase and Renilla activities were measured 24 h or 48 h after transfection using Dual-Glo luciferase assay system (Promega).

aSynL/total ratio = aSynL/total ratio in SK-N-MC cells treated with chronic low-dose rotenone (reanalysis of GEO GSE4773); format: cell-based, human; conditions: one or two weeks vs vehicle
aSynL:total ratio [2] = assay: In situ hybridization for aSyn CDS and long 3′UTR in primary cortical neuron cultures from aSyn PAC transgenic mice; format: cell-based; conditions: 100 μM for 24 h, DIV 4 PAC mouse cortical neurons
Description: as §1
In situ hybridization were performed using QuantiGene® ViewRNA ISH Cell Assay (Panomics) following manufacturer's instructions, with QG ViewRNA TYPE 8 Probe Sets (Panomics) designed to target either human aSyn CDS sequences (bases 264-634 from NM_000345.3; Panomics) or to target human aSynL 3′UTR sequences (bases 1180-1760 from NM_000345.3).

aSyn protein [3] = assay: Total endogenous aSyn protein by ELISA in SH-SY5Y cells; format: cell-based, human; conditions: 100 μM for 48 h
Description: (§2) Mitochondria were purified using Qproteome Mitochondria Isolation Kit (Qiagen) and membrane fractions were isolated using Subcellular Protein Fractionation Kit (Pierce) following manufacturers' instructions. Human aSyn protein levels were determined using the aSyn Human ELISA kit (Invitrogen). Absorbance was read on a VersaMax ELISA Microplate Reader (Molecular Devices, Inc) at 450 nm. The amount of human aSyn was normalized to total cellular protein as determined with the DC Protein Assay Reagent kit (Bio-Rad). Mitochondrial preparations were validated by Western blot analysis for Tom20 and synaptophysin (see FIG. 12d).

aSyn protein [4] = assay: aSyn protein by ELISA in mitochondrial and membrane fractions of SH-SY5Y cells; format: cell-based, human; conditions: 100 μM for 48 h
Description: as §2

aSyn protein [5] = assay: Colocalization of aSyn and Mitotracker in primary cortical neuron cultures from PAC transgenic mice; format: cell-based; conditions: primary mouse cortical neurons, 100 μM for 24 h
Description: as §1
Immunostainings were done as previously described ^59 with Rabbit anti-aSyn (Santa Cruz, 1:200) or Mouse anti-Synaptophysin (Millipore, 1:100) as primary antibodies, and Alexa 555 goat anti-rabbit IgG or Alexa 633 goat anti-mouse IgG (Invitrogen) secondary antibodies. MitoTracker-Orange (Invitrogen, 1:10000) was added into media for 15-20 min in living cell culture. Collocalization analyses were done in R using EBImage package; using Pearson's correlation coefficient.

NCc1cc(=O)[nH]o1 [muscimol]
aSynL:total ratio (aSynL:total ratio [1]): alter
luciferase expression, Firefly/Renilla ratio, 1.1 kb human aSyn 3′UTR vector (human aSyn 3′UTR; SH-SY5Y): decreased

CN1CCCC1c1cccnc1 (stereo not shown) [nicotine]
expression of an aSynL-3′UTR bearing reporter gene (Firefly/Renilla) (human aSyn 3′UTR; nicotine 100 μM, with or without dopamine 100 μM, 24 h): decreases

CN1Cc2c(N)cccc2C(c2ccccc2)C1 (stereo not shown) [nomifensine]
dopamine-mediated potentiation of the aSynL:total ratio (aSynL:total ratio [1]): suppressed sensitivity
dopamine-mediated potentiation of the aSynL:total ratio (aSynL:total ratio [1]; listed as Nomifensine): suppresses
dopamine-increased luciferase accumulation, luciferase-aSyn 3′UTR vector (human aSyn 3′UTR; SH-SY5Y, dopamine 100 μM with nomifensine 100 μM, 24 h): suppressed

C=C(C)[C@H]1Cc2c(ccc3c2O[C@@H]2COc4cc(OC)c(OC)cc4[C@@H]2C3=O)O1 [rotenone]
aSynL/total ratio (Affymetrix probesets 204467_s_at and 211546_x_at) (aSynL/total ratio): predictably modify; also recorded: increased
aSynL/total ratio (Affymetrix probesets 204467_s_at and 211546_x_at) (aSynL/total ratio; listed as Rotenone): Mitochondrial toxin increases aSynL: total ratio

picrotoxin
aSynL:total ratio (aSynL:total ratio [1]): significantly increased; also recorded: alter
aSynL:total ratio (ratio of in situ hybridization signals) (aSynL:total ratio [2]): increase
endogenous aSyn protein levels (ELISA, normalized to total protein) (aSyn protein [3]): significantly increased
luciferase expression, Firefly/Renilla ratio, 1.1 kb human aSyn 3′UTR vector (human aSyn 3′UTR; SH-SY5Y): increased
luciferase expression, Firefly/Renilla ratio, short aSyn 3′UTR vector (human aSyn 3′UTR; SH-SY5Y, 100 μM for 24 hrs): do not influence
aSyn content within total cell membrane fraction relative to whole cell lysate (ELISA) (aSyn protein [4]): decreased; also recorded: reduction
aSyn protein content in mitochondrial preparations relative to whole cell aSyn content (ELISA) (aSyn protein [4]): increased proportion; also recorded: preferentially increased
fraction of aSyn protein that colocalized with mitochondria (Mitotracker) (aSyn protein [5]): significantly increased
